Assay results taken from patent US20230143612A1 (Arbutus Biopharma Corporation, priority 2020, published 2023).

Biological target: PD-L1 His protein / PD-1 Fc protein (Homo sapiens, UniProt Q9NZQ7)
Experiment: HTRF Assay (PD-1/PD-L1 interaction)
Format: binding
Settings: PD-L1 His 6 nM, PD-1 Fc 6 nM
Summary of the method: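 HTRF: PD-L1 His (6 nM final), compound (3-fold dilutions, 20 μM to 0.001 μM final) and PD-1 Fc (6 nM final) preincubated 15 min at room temperature. Anti-human IgG-XL665 and anti-6HIS Tb cryptate (mixed at 6.7 nM and 0.35 nM) then added for 1 h at room temperature before reading.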

PD-L1 His protein / PD-1 Fc protein, sequence (Q9NZQ7 19-238 limits assumed): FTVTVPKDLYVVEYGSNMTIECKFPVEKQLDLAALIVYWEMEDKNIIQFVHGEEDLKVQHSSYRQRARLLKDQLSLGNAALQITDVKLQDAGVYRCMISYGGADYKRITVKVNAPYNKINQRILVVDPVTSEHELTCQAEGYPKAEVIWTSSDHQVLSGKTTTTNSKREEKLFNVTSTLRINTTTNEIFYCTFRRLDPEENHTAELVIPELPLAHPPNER

| SMILES | IC50 |
| --- | --- |
| COc1nc(-c2cccc(-c3cccc(-c4ccn5c(=O)c(CN(C)CCNC(=O)OC(C)(C)C)cnc5c4)c3Cl)c2Cl)ccc1CN(C)CCNC(=O)OC(C)(C)C [Example 277, tert-butyl (2-(((6-(3′-(3-(((2-((tert-butoxycarbonyl)amino)ethyl)(methyl)amino)methyl)-4-oxo-4H-pyrido[1,2-a]pyrimidin-8-yl)-2,2′-dichloro-[1,1′-biphenyl]-3-yl)-2-methoxypyridin-3-yl)methyl)(methyl)amino)ethyl)carbamate] | 200 nM |
| CNCCN(C)Cc1cnc2cc(-c3cccc(-c4cccc(-c5ccc(CNC[C@@H]6CCC(=O)N6)c(OC)n5)c4Cl)c3Cl)ccn2c1=O [Example 278, (S)-8-(2,2′-dichloro-3′-(6-methoxy-5-((((5-oxopyrrolidin-2-yl)methyl)amino)methyl)pyridin-2-yl)-[1,1′-biphenyl]-3-yl)-3-((methyl(2-(methylamino)ethyl)amino)methyl)-4H-pyrido[1,2-a]pyrimidin-4-one] | 0.1 nM |
| COc1nc(-c2cccc(-c3cccc(-c4ccn5c(=O)c(CN(C)CCN)cnc5c4)c3Cl)c2Cl)ccc1CNC[C@@H]1CCC(=O)N1 [Example 279, (S)-3-(((2-aminoethyl)(methyl)amino)methyl)-8-(2,2′-dichloro-3′-(6-methoxy-5-((((5-oxopyrrolidin-2-yl)methyl)amino)methyl)pyridin-2-yl)-[1,1′-biphenyl]-3-yl)-4H-pyrido[1,2-a]pyrimidin-4-one] | 0.1 nM |
| COc1nc(-c2cccc(-c3cccc(-c4ccn5c(=O)c(CN(C)CCO)cnc5c4)c3Cl)c2Cl)ccc1CNC[C@@H]1CCC(=O)N1 [Example 281, (S)-8-(2,2′-Dichloro-3′-(6-methoxy-5-((((5-oxopyrrolidin-2-yl)methyl)-amino)-methyl)pyridin-2-yl)-[1,1′-biphenyl]-3-yl)-3-(((2-hydroxyethyl)(methyl)amino)methyl)-4H-pyrido[1,2-a]-pyrimidin-4-one] | 0.1 nM |
| COc1nc(-c2cccc(-c3cccc(-c4ccn5ncc(CNC[C@@H]6CCC(=O)N6)c5n4)c3Cl)c2Cl)ccc1CNC[C@@H]1CCC(=O)N1 [Example 282, (S)-5-((((6-(2,2′-Dichloro-3′-(3-(((((S)-5-oxopyrrolidin-2-yl)-methyl)amino)-methyl)-pyrazolo[1,5-a]pyrimidin-5-yl)-[1,1′-biphenyl]-3-yl)-2-methoxypyridin-3-yl)methyl)-amino)methyl)-pyrrolidin-2-one] | 8.7 nM |
| COc1nc(-c2cccc(-c3cccc(-c4ccn5c(=O)c(CNC[C@@H]6CCC(=O)N6)cnc5c4)c3Cl)c2Cl)ccc1C1(CN)CC1 [Example 283, (S)-8-(3′-(5-(1-(Aminomethyl)cyclopropyl)-6-methoxypyridin-2-yl)-2,2′-dichloro-[1,1′-biphenyl]-3-yl)-3-((((5-oxopyrrolidin-2-yl)methyl)amino)methyl)-4H-pyrido[1,2-a]pyrimidin-4-one] | 150 nM |
| COc1nc(-c2cccc(-c3cccc(-c4ccn5c(=O)c(CNC[C@H]6CNC(=O)C6)cnc5c4)c3Cl)c2Cl)ccc1CNC[C@@H]1CCC(=O)N1 [Example 284, 8-(2,2′-Dichloro-3′-(6-methoxy-5-(((((S)-5-oxopyrrolidin-2-yl)methyl)-amino)methyl)-pyridin-2-yl)-[1,1′-biphenyl]-3-yl)-3-(((((S)-5-oxopyrrolidin-3-yl)methyl)amino)methyl)-4H-pyrido[1,2-a]pyrimidin-4-one] | 0.1 nM |
| COc1nc(-c2cccc(-c3cccc(-c4cc(C)c5nc(CNC[C@@H]6CCC(=O)N6)cc(=O)n5c4)c3Cl)c2Cl)ccc1CNC[C@@H]1CCC(=O)N1 [Example 288, 7-(2,2′-Dichloro-3′-(6-methoxy-5-(((((S)-5-oxopyrrolidin-2-yl)methyl)amino)methyl)pyridin-2-yl)-[1,1′-biphenyl]-3-yl)-9-methyl-2-(((((S)-5-oxopyrrolidin-2-yl)methyl)amino)methyl)-4H-pyrido[1,2-a]pyrimidin-4-one] | 56 nM |
